The source made the active and inactive calls. The calls are words filed in the database; no cut-off is given here.
Legend:
CHO = assay: cells; details: Cricetulus griseus, 96 h
KB = assay: Antitumor activity against human KB cells assessed as inhibition of cell growth measured upto 96 hrs in presence of adenosine by Cell titer blue assay; format: functional, cell-based

Row | SMILES | IC50 (CHO) | Activity (KB)
1 | Nc1nc2[nH]cc(CCc3ccc(C(=O)N[C@@H](CCC(=O)O)C(=O)O)cc3)c2c(=O)[nH]1 [PEMETREXED] | 60 nM | –
2 | Nc1nc2[nH]c(CCCc3ccc(C(=O)N[C@@H](CCC(=O)O)C(=O)O)s3)cc2c(=O)[nH]1 | – | inactive

Reference: ChEMBL document CHEMBL5360656, “Structure-Based Design of Transport-Specific Multitargeted One-Carbon Metabolism Inhibitors in Cytosol and Mitochondria” (J Med Chem, 2023)
